Measurements reported in US6407134B1, “Heterocyclecarbonyl amino acid hydroxyethylamino sulfonamide retroviral protease inhibitors” (G. D. Searle & Co., priority 1995, dated 2002).
Like-named read-outs stand apart in the source and are kept apart here.

What was measured:
HIV-1 in CEM cells = assay: CEM cell assay: HIV inhibition in acutely infected cells, tetrazolium (MTT) based colorimetric assay; details: Human immunodeficiency virus 1, CCRF-CEM, 168 h; CEM cells acutely infected with HIV-1, 7 days, MTT readout
Method: The effectiveness of various compounds were determined in the above-described enzyme assay and in a CEM cell assay.
The HIV inhibition assay method of acutely infected cells is an automated tetrazolium based colorimetric assay essentially that reported by Pauwles et al, J. Virol. Methods, 20, 309-321 (1988). Assays were performed in 96-well tissue culture plates. CEM cells, a CD4+ cell line, were grown in RPMI-1640 medium (Gibco) supplemented with a 10% fetal calf serum and were then treated with polybrene (2 μg/ml). An 80 μl volume of medium containing 1×10^4 cells was dispensed into each well of the tissue culture plate. To each well was added a 100 μl volume of test compound dissolved in tissue culture medium (or medium without test compound as a control) to achieve the desired final concentration and the cells were incubated at 37° C. for 1 hour. […] Likewise, the intrinsic toxicity of the test compound was determined by adding medium without virus to several wells containing test compound. […]
Following the addition of virus, cells were incubated at 37° C. in a humidified, 5% CO2 atmosphere for 7 days. […] The absorbance at 590 nm was determined for each sample using a Molecular Devices microplate reader. Absorbance values for each set of wells is compared to assess viral control infection, uninfected control cell response as well as test compound by cytotoxicity and antiviral efficacy.

HIV protease = biological target: T1, HIV protease (Human immunodeficiency virus type 1 group M subtype B, UniProt P04585); assay: HIV protease enzyme assay (fluorescence, substrate 2-Ile-Nle-Phe(p-NO2)-Gln-ArgNH2); assay type: biochemical
T1 construct: HIV protease is diluted in the assay buffer to a final enzyme concentration of 12.3 nanomolar, based on a molecular weight of 10,780
Description: The compounds of the present invention are effective HIV protease inhibitors. Utilizing an enzyme assay as described below, the compounds set forth in the examples herein disclosed inhibited the HIV enzyme. The preferred compounds of the present invention and their calculated IC50 (inhibiting concentration 50%, i.e., the concentration at which the inhibitor compound reduces enzyme activity by 50%) values are shown in Table 10. The enzyme method is described below. The substrate is 2-Ile-Nle-Phe(p-NO2)-Gln-ArgNH2. The positive control is MVT-101 (Miller, M. et al, Science, 246, 1149 (1989)] The assay conditions are as follows:
20 mM sodium phosphate, pH 6.4
The above described substrate is dissolved in DMSO, then diluted 10 fold in assay buffer. Final substrate concentration in the assay is 80 μM. HIV protease is diluted in the assay buffer to a final enzyme concentration of 12.3 nanomolar, based on a molecular weight of 10,780.
The final concentration of DMSO is 14% and the final concentration of glycerol is 18%. The test compound is dissolved in DMSO and diluted in DMSO to 10× the test concentration; 10 μl of the enzyme preparation is added, the materials mixed and then the mixture is incubated at ambient temperature for 15 minutes. […] The increase in fluorescence is monitored at 4 time points (0, 8, 16 and 24 minutes) at ambient temperature. […]

SMILES | EC50 (HIV-1 in CEM cells) [nM] | IC50 (HIV protease) [nM] | IC50 (HIV protease; HIV protease 12.3 nanomolar, substrate 80 μM, pH 6.4, ambient temperature, read-out: IC50) [nM]
CC(C)CN(C[C@@H](O)[C@H](Cc1ccccc1)NC(=O)[C@@H](NC(=O)[C@@H]1CCCN1)C(C)(C)C)S(=O)(=O)c1ccc2c(c1)OCO2 [Entry 1] | 12 | 2 | 
CCC(C)[C@H](NC(=O)[C@@H]1CCCN1)C(=O)N[C@@H](Cc1ccccc1)[C@H](O)CN(CC(C)C)S(=O)(=O)c1ccc2c(c1)OCO2 (stereo partly drawn) [Entry 2] |  |  | 3
